What was measured:
Format in all cases: in vivo, human
[1] = test system: stage IV, extra-hepatic cholangiocarcinoma; assay: Example 2: Varlitinib 400 mg bi-daily combination therapy followed by monotherapy in a patient
Procedure: A person, stage IV, extra-hepatic cholangiocarcinoma, prior treatment: • Whipple • Radiotherapy • Gemzar/cisplatin for 6 months For the first 6 cycles, the patient received Varlitinib 400 mg BID continuously with cisplatin (80 mg/m^2 every 3 weeks) and capecitabine (1000 mg/m2 BID, 2 weeks on, 1 week off). […] In summary, the patient received varlitinib with chemo for 6 cycles and varlitinib monotherapy for another 4 cycles (3 weeks per cycle).

[2] = test system: stage IV cholangiocarcinoma EGFR positive (3+) cancer; assay: Example 1: Varlitinib 400 mg bi-daily monotherapy in a patient; conditions: after treatment cycle 6, Varlitinib 400 mg bi-daily monotherapy
[3] = test system: intrahepatic cholangiocarcinoma, stage IV; assay: Example 3: Varlitinib 400 mg bi-daily orally and FOLFOX in a patient (ASLAN001-002SG study)
Excerpt: They received left hemihepatectomy followed by 6 cycles of adjuvant gemcitabine and cisplatin.

In the case of `C[C@@H]1COC(Nc2ccc3ncnc(Nc4ccc(OCc5nccs5)c(Cl)c4)c3c2)=N1` [Varlitinib, (R)—N4-[3-Chloro-4-(thiazol-2-ylmethoxy)-phenyl]-N6-(4-methyl-4,5,-dihydro-oxazol-2-yl)-quinazoline-4,6-diamine], the “reduction in tumour size (tumor scan)” value ([1]; end of cycle 8, varlitinib monotherapy after 6 cycles of combination with cisplatin and capecitabine) is reported as 87%, the “image scan outcome based on RECIST” value ([1]; end of cycle 10, on varlitinib monotherapy, criterion >20% increase against nadir) is reported as “disease progression” and the “tumour marker CA 19-9” value ([2]; fell from ~900 U/ml) is reported as about 250 U/ml. For the same molecule, the “liver tumours decreased in size” value ([2]; one patient progressive after gemcitabine and cisplatin/5-FU) was “up to 23%”, the “reduction in tumor size as the best response from baseline” value ([3]; Varlitinib 400 mg BID with mFOLFOX6 for 9 cycles, then 9 cycles varlitinib monotherapy (2 weeks per cycle), one patient) was 53% and the “latest tumor assessment (response)” value ([3]; after cycle 18, 9 cycles Varlitinib 400 mg BID and mFOLFOX6, then 9 cycles varlitinib monotherapy) was “partial response”.

— patent publication US10682353B2, “Varlitinib for use in the treatment of resistant or refractory cancer” (ASLAN Pharmaceuticals PTE LTD, priority 2015, dated 2020)
